Data set [1] relates to virus containing G140S/Q148H mutation in the integrase gene. The settings on record: k = IC50(mutant)/IC50(wild type). On the procedure: (§1) An assay for measuring the inhibition of acute HIV infection with HeLa P4-2 cells in a single cycle infectivity assay was conducted using methods described in Joyce et al., J. Biol. Chem. 2002, 277: 45811, Hazuda et al., Science 2000, 287: 646, and Kimpton et al, J. Virol. 1992, 66: 2232. Proviral plasmids encoding viruses containing specific mutations in the integrase gene (N155H, Q148R, Y143R, E92Q, or G140S/Q148H) were generated by site-directed mutagenesis, and viruses were produced by transfecting 293T cells with the appropriate proviral plasmids.

For data set [2], the system named is virus containing N155H mutation in the integrase gene. The settings on record: k = IC50(mutant)/IC50(wild type). How it is done:
as §1

Data set [3] concerns virus containing Q148R mutation in the integrase gene. The settings on record: k = IC50(mutant)/IC50(wild type). How it is done: as §1
The test system of data set [4] is virus containing Y143R mutation in the integrase gene. The settings on record: k = IC50(mutant)/IC50(wild type). On the procedure:
as §1

Data set [5] addresses T1, recombinant integrase (HIV-1 integrase) (Human immunodeficiency virus type 1 group M subtype B, UniProt P04585).
T1 construct: Assays for the strand transfer activity of integrase were conducted in accordance with WO 02/30930 for recombinant integrase
Briefly: HIV-1 integrase assay: strand transfer catalyzed by recombinant integrase. The settings on record: strand transfer activity. It is filed as biochemical. On the procedure:
HIV-1 Integrase Assay: Strand Transfer Catalyzed by Recombinant Integrase
Assays for the strand transfer activity of integrase were conducted in accordance with WO 02/30930 for recombinant integrase. […] For example, the compounds prepared in Examples 1 to 5 were tested in the integrase assay and found to have the IC50 values in Table B. (Compounds 6A and 6B were not tested in this assay.)
Further description on conducting the assay using preassembled complexes is found in Wolfe, A. L. et al., J. Virol. 1996, 70: 1424-1432, Hazuda et al., J. Virol. 1997, 71: 7005-7011; Hazuda et al., Drug Design and Discovery 1997, 15: 17-24; and Hazuda et al., Science 2000, 287: 646-650.

For another data set, the system named is HIV-1. Briefly: Inhibition of acute HIV-1 infection of T-lymphoid cells (spread assay). It is filed as cell-based. On the procedure: Assay for Inhibition of HIV-1 Replication
Assays for the inhibition of acute HIV-1 infection of T-lymphoid cells were conducted in accordance with Vacca, J. P. et al, Proc. Natl. Acad. Sci. USA 1994, 91: 4096.

In another data set the test system is wild type IIIB. As to the kind of experiment: Single cycle infectivity assay in HeLa P4-2 cells, wild type virus. The settings on record: single cycle infectivity, wild type IIIB, read-out: wild type IIIB IC50. It is filed as cell-based, HIV.
Where [6] appears, read: Human immunodeficiency virus 1, IIIB, HeLaP4-2, HeLa P4-2 cells.

Where two headings read alike, the source gives them in different places.

Regarding `Cc1cc(CNC(=O)c2nc3n(c(=O)c2O)[C@H](C)COC[C@H]3N(C)C(=O)C(=O)N(C)C)ccc1F` [Compound 4D, N-((6R,10S)-2-{[(4-fluoro-3-methylbenzyl)amino]carbonyl}-3-hydroxy-6-methyl-4-oxo-6,7,9,10-tetrahydro-4H-pyrimido[1,2-d][1,4]oxazepin-10-yl)-N,N′,N′-trimethylethanediamide], the “Number of fold shift in IC50 versus wild type IIIB, G140S/Q148H” value (from here on “Number of fold shift … G140S/Q148H”) in data set [1] was found to be 72. The “Number of fold shift in IC50 versus wild type IIIB, N155H” value (“Number of fold shift … N155H” for short) in data set [2] is 8. Further, in data set [3], the “Number of fold shift in IC50 versus wild type IIIB, Q148R” value (shortened to “Number of fold shift … Q148R”) was determined as 9. Besides, the “Number of fold shift in IC50 versus wild type IIIB, Y143R” value (“Number of fold shift … Y143R” below) in data set [4] is 2. Also, the values for the IC50 (in data set [5] (read-out: IC50); with wild type IIIB (setting [6])) were 36 nM and 0.02 µM, respectively. In the data set with HIV-1, the “IC95 (nM) in the presence of 10% FBS” value was determined as 6 nM.
For `Cc1cc(CNC(=O)c2nc3n(c(=O)c2O)[C@H](C)COC[C@@H]3N(C)C(=O)C(=O)N(C)C)ccc1F` [Compound 4C, N-((6R,10R)-2-{[(4-fluoro-3-methylbenzyl)amino]carbonyl}-3-hydroxy-6-methyl-4-oxo-6,7,9,10-tetrahydro-4H-pyrimido[1,2-d][1,4]oxazepin-10-yl)-N,N′,N′-trimethylethanediamide], the “Number of fold shift … G140S/Q148H” value in data set [1] was determined as 11. Moreover, in data set [2], the “Number of fold shift … N155H” value is 3. Also, the “Number of fold shift … Q148R” value in data set [3] is recorded as 3. The “Number of fold shift … Y143R” value in data set [4] is 1. Further, the values for the IC50 (in data set [5] (read-out: IC50); in the data set on wild type IIIB (setting [6])) were 48 nM and 0.026 µM, respectively. The “IC95 (nM) in the presence of 10% FBS” value in the data set with HIV-1 came out at 10 nM.
In the case of `CCN(C(=O)C(=O)N(C)C)[C@H]1CC[C@H](OC)Cn2c1nc(C(=O)NCc1ccc(F)cc1)c(O)c2=O` [Compound 6B, N-ethyl-N-((7S,10S)-2-{[(4-fluorobenzyl)amino]carbonyl}-3-hydroxy-7-methoxy-4-oxo-4,6,7,8,9,10-hexahydropyrimido[1,2-a]azepin-10-yl)-N,N-dimethylethanediamide], the “Number of fold shift … G140S/Q148H” value in data set [1] is reported as above 100. The “Number of fold shift … N155H” value in data set [2] is 13. Moreover, the “Number of fold shift … Q148R” value in data set [3] is reported as above 100. The “Number of fold shift … Y143R” value in data set [4] is reported as above 100. The “IC95 (nM) in the presence of 10% FBS” value with HIV-1 is recorded as 14 nM. The 50% inhibitory concentration (IC50) with wild type IIIB (setting [6]) amounted to 0.013 µM.
For `COC1(C)CCC(N(C)C(=O)C(=O)N(C)C)c2nc(C(=O)NCc3ccc(F)c(C)c3)c(O)c(=O)n2C1` (single isomer, unassigned) [Compound 2D, N-(2-{[(4-fluoro-3-methylbenzyl)amino]carbonyl}-3-hydroxy-7-methoxy-7-methyl-4-oxo-4,6,7,8,9,10-hexahydropyrimido[1,2-a]azepin-10-yl)-N,N′,N′-trimethylethanediamide], the “Number of fold shift … G140S/Q148H” value in data set [1] was found to be 4. In data set [2], the “Number of fold shift … N155H” value came to 2. Further, in data set [3], the “Number of fold shift … Q148R” value was 1. Moreover, the “Number of fold shift … Y143R” value in data set [4] was 2. The IC50 was found to be 46 nM in data set [5] (IC50 (nM)) and 0.023 µM in the data set with wild type IIIB (HeLa P4-2 cells). The “IC95 (nM) in the presence of 10% FBS” value with HIV-1 amounted to 14 nM.
In the case of `CN(C)C(=O)C(=O)N(C)C1COCCn2c1nc(C(=O)NCc1ccc(F)cc1)c(O)c2=O` (single isomer, unassigned; (-)) [Compound W, (−)N-(2-{[(4-fluorobenzyl)amino]carbonyl}-3-hydroxy-4-oxo-6,7,9,10-tetrahydro-4h-pyrimido[1,2-d][1,4]oxazepin-10-yl)-N,N′,N′-trimethylethanediamide, reference compound], the “Number of fold shift … G140S/Q148H” value in data set [1] was above 73. The “Number of fold shift … N155H” value in data set [2] is on record as 29. The “Number of fold shift … Q148R” value in data set [3] is recorded as 67. The “Number of fold shift … Y143R” value in data set [4] was determined as 3. Also, the IC50 with wild type IIIB (HeLa P4-2 cells) was 0.026 µM.
On to `CC[C@@H]1COC[C@H](N(C)C(=O)C(=O)N(C)C)c2nc(C(=O)NCc3ccc(F)cc3)c(O)c(=O)n21` [Compound 5C, N-((6R,10R)-6-ethyl-2-{[(4-fluorobenzyl)amino]carbonyl}-3-hydroxy-4-oxo-6,7,9,10-tetrahydro-4H-pyrimido[1,2-d][1,4]oxazepin-10-yl)-N N′N′-trimethylethanediamide], for which the “Number of fold shift … G140S/Q148H” value in data set [1] came out at 116. Further, the “Number of fold shift … N155H” value in data set [2] was found to be 7. Further, the “Number of fold shift … Q148R” value in data set [3] came out at 7. For the same compound, the “Number of fold shift … Y143R” value in data set [4] came out at 2. Also, the half-inhibitory concentration (IC50) in data set [5] (read-out: IC50) is 41 nM; in the data set with wild type IIIB (setting [6]), 0.021 µM. Further, the “IC95 (nM) in the presence of 10% FBS” value in the data set with HIV-1 came out at 14 nM.
With `CC[C@@H]1COC[C@@H](N(C)C(=O)C(=O)N(C)C)c2nc(C(=O)NCc3ccc(F)cc3)c(O)c(=O)n21` [Compound 5D, N-((6R,10S)-6-ethyl-2-{[(4-fluorobenzyl)amino]carbonyl}-3-hydroxy-4-oxo-6,7,9,10-tetrahydro-4H-pyrimido[1,2-d][1,4]oxazepin-10-yl)-N N′ N′-trimethylethanediamide], the “Number of fold shift … G140S/Q148H” value in data set [1] was 18. Further, the “Number of fold shift … N155H” value in data set [2] amounted to 13. Also, the “Number of fold shift … Q148R” value in data set [3] stood at 14. In data set [4], the “Number of fold shift … Y143R” value was determined as 1. In addition, the half-inhibitory concentration (IC50) in data set [5] (read-out: IC50) was determined as 42 nM; in the data set on wild type IIIB (setting [6]), 0.026 µM. Moreover, in the data set on HIV-1, the “IC95 (nM) in the presence of 10% FBS” value was 20 nM.
In the case of `Cc1ccc(CNC(=O)c2nc3n(c(=O)c2O)C(C)CCCC3N(C)C(=O)C(=O)N(C)C)cc1F` (single isomer, unassigned) [Compound 3B, Cis-N-(2-{[(3-fluoro-4-methylbenzyl)amino]carbonyl}-3-hydroxy-6-methyl-4-oxo-4,6,7,8,9,10-hexahydropyrimido[1,2-a]azepin-10-yl)-N,N′,N′-trimethylethanediamide], the “Number of fold shift … G140S/Q148H” value in data set [1] is 2. Moreover, the “Number of fold shift … N155H” value in data set [2] came out at 1. Also, the “Number of fold shift … Q148R” value in data set [3] is given as 1. Further, the “Number of fold shift … Y143R” value in data set [4] was 1. Besides, the IC50 was 44 nM in data set [5] (IC50 (nM)) and 0.048 µM in the data set with wild type IIIB (setting [6]). Further, the “IC95 (nM) in the presence of 10% FBS” value in the data set on HIV-1 is given as 41 nM.
On to `Cc1cc(CNC(=O)c2nc3n(c(=O)c2O)CC(C)(C)CC[C@H]3N(C)C(=O)C(=O)N(C)C)ccc1F` [Compound 1A, N-((10R)-2-{[(4-fluoro-3-methylbenzyl)amino]carbonyl}-3-hydroxy-7,7-dimethyl-4-oxo-4,6,7,8,9,10-hexahydropyrimido[1,2-a]azepin-10-yl)-N,N′,N′-trimethylethanediamide], for which, in data set [1], the “Number of fold shift … G140S/Q148H” value is 9. In addition, the “Number of fold shift … N155H” value in data set [2] is listed as 1. Moreover, the “Number of fold shift … Q148R” value in data set [3] is 2. Moreover, the “Number of fold shift … Y143R” value in data set [4] was determined as 1. For the same compound, the half-maximal inhibitory concentration (IC50) in data set [5] (read-out: IC50) turned out to be 42 nM; with wild type IIIB (setting [6]), 0.041 µM. Besides, the “IC95 (nM) in the presence of 10% FBS” value with HIV-1 was 12 nM.
Take `CN(C)C(=O)C(=O)N(C)C1COCCn2c1nc(C(=O)NCc1ccc(F)cc1)c(O)c2=O` (single isomer, unassigned; (+)) [Compound V, (+)N-(2-{[(4-fluorobenzyl)amino]carbonyl}-3-hydroxy-4-oxo-6,7,9,10-tetrahydro-4h-pyrimido[1,2-d][1,4]oxazepin-10-yl)-N,N′,N′-trimethylethanediamide, reference compound]: the “Number of fold shift … G140S/Q148H” value in data set [1] is above 32. Moreover, the “Number of fold shift … N155H” value in data set [2] came out at 10. For the same compound, the “Number of fold shift … Q148R” value in data set [3] was 13. The “Number of fold shift … Y143R” value in data set [4] is given as 1. The IC50 with wild type IIIB (setting [6]) was 0.037 µM.
Turning to `Cc1ccc(CNC(=O)c2nc3n(c(=O)c2O)[C@H](C)CCC[C@H]3N(C)C(=O)C(=O)N(C)C)cc1F` (racemic) [Compound 3A, Racemic-trans-N-(2-{[(3-fluoro-4-methylbenzyl)amino]carbonyl}-3-hydroxy-6-methyl-4-oxo-4,6,7,8,9,10-hexahydropyrimido[1,2-a]azepin-10-yl)-N,N′,N′-trimethylethanediamide], the “Number of fold shift … G140S/Q148H” value in data set [1] was found to be 4. Besides, the “Number of fold shift … N155H” value in data set [2] is on record as 1. Moreover, the “Number of fold shift … Q148R” value in data set [3] was 1. Moreover, the concentration for half-maximal inhibition (IC50) in data set [5] (read-out: IC50) was 40 nM; with wild type IIIB (setting [6]), 0.031 µM. Moreover, in the data set on HIV-1, the “IC95 (nM) in the presence of 10% FBS” value is recorded as 18 nM.
